Laboratory results: patent US11305024B2, “Cross-linked polymer modified nanoparticles” (OREGON HEALTH & SCIENCE UNIVERSITY, priority 2015, dated 2022)

Experiments:
HCC1954 [1] = conditions: in vitro and/or in mice; cited from earlier work
[2] = metastatic solid tumor patients; cited from earlier work
luciferase = assay: Luciferase silencing by siLUC-loaded nanoconstructs in LM2-4luc+/H2N cells; assay type: cell-based; conditions: 13-130 nM GALA, 15 nM siRNA, NP/siRNA 50, non-cross-linked PEI, 2 days
Procedure: The LM2-4luc+/H2N cell line (over-expressing luciferase and HER2; J. M. du Manoir et al., 2006) was used for initial assessment of the nanoparticles for gene silencing efficacy when delivering siRNA against luciferase (siLUC). Cells were plated at 3000 cells/well in a 96-well plate. One day after seeding, cells were treated with siLUC-nanoparticles. The nanoparticles were loaded with siLUC at NP/siRNA ratio of 25 or 50 by mass. […] The commercially available transfection agent, DharmaFECT™ (Dharmacon, Lafayette, Colo.), with the same siLUC dose served as a positive control. Non-targeting or scrambled siRNA (siSCR) was used throughout as a negative control. After overnight incubation (−20 hours), cells were washed once to remove the nanoconstructs and replenished with a complete media. At 48 hours post-treatment, cells were lysed and analyzed for luciferase activity by the Luciferase Glow Assay Kit (Thermo Fisher Scientific, Waltham, Mass.) and protein concentration by the BCA protein assay kit (Thermo Fisher Scientific), following manufacturer's protocols. Luciferase activity of the lysate was normalized with the corresponding protein concentration in the same well and reported as a percentage of the untreated or siSCR controls. All treatments were performed with replicates.

Red blood cells = assay: Hemolysis; assay type: cell-based, human; conditions: 4 hours, 37° C.; nanoparticle 70 or 350 μg/mL (1× or 5×)
Procedure: Nanoparticles were tested at 1× and 5× of the intended human blood level. Studies of blood compatibility were performed following or with minor modification from the Nanotechnology Characterization Laboratory's (Frederick, Md.) published protocols.
Human blood was collected in the presence of EDTA, and serum was removed. Red blood cells were suspended at 1×10^9 cells per mL and exposed to nanoparticle (final concentrations of 70 or 350 μg/mL for 1× or 5×, respectively) for 4 hours and 37° C. Following centrifugation, absorbance of hemoglobin in the supernatants (at 542 nm) was measured and used to quantify percent hemolysis.

Platelet-rich plasma = assay: Platelet aggregation assay; set-up: species or system human; conditions: monitored for three minutes; 1× and 5×
Procedure: Platelet-rich plasma (PRP) was obtained following centrifugation of isolated blood (diluted in 3.2% sodium citrate, 1:10). The isolated blood was centrifuged at 200 g for 20 minutes. The supernatant (which contains PRP) was collected and maintained at room temperature prior to treatment. Following a 1-min incubation at 37° C. (baseline), reactions were initiated by addition of nanoparticle (70 or 350 μg/mL) or collagen related peptide (CRP; 100 μg/ml) and monitored for three minutes for optical density via an aggregometer (Chrono-log Corp).

[3] = test system: basal cells, HCC1954, BT549, and HCC70; assay: Screening of siRNA in combination with paclitaxel, basal cells as a group; assay type: cell-based
Procedure: (§1) Cells were first treated with 30 nM siRNAs (and commercial DharmaFECT™) followed by 5 nM paclitaxel treatment 24 hours later. Cell viability was determined 3 days later. […] In short, knocking down HER2 had the greatest impact on paclitaxel toxicity in BT474 (having highest HER2 level). […] The effect of paclitaxel combined with siAKT1/BCL2 or siEPS8L1 was also significant. The best enhancement by siAKT1/BCL2 (38-41%) appeared to be with basal cells, HCC1954, BT549, and HCC70. EPS8L1 is involved in EGFR signaling and functions in cell migration.

HCC70 = assay: Screening of siRNA in combination with paclitaxel, cell viability; assay type: cell-based; conditions: for Cell Viability (% of Scramble Control): 30 nM siRNA; for Enhanced Paclitaxel effect due to gene knockdown: over paclitaxel alone
Procedure: as §1

SKBR3 = assay: as above; assay type: cell-based; conditions: for Cell Viability (% of Scramble Control): 30 nM siRNA; for Enhanced Paclitaxel effect due to gene knockdown: over paclitaxel alone
Procedure: as §1

BT549 = assay: as above; assay type: cell-based; conditions: for Cell Viability (% of Scramble Control): 30 nM siRNA; for Enhanced Paclitaxel effect due to gene knockdown: over paclitaxel alone
Procedure: as §1

HCC1954 [4] = assay: as above; assay type: cell-based; conditions: for Cell Viability (% of Scramble Control): 30 nM siRNA; for Enhanced Paclitaxel effect due to gene knockdown: over paclitaxel alone
Procedure: as §1

BT474 = assay: as above; assay type: cell-based; conditions: for Cell Viability (% of Scramble Control): 30 nM siRNA; for Enhanced Paclitaxel effect due to gene knockdown: over paclitaxel alone
Procedure: as §1

[5] = Serum protection assay (siRNA in 50% human serum); assay type: in vitro ADME; conditions: 37° C.
Procedure: siRNA-nanoparticles were incubated with 50 v/v % human serum in PBS for a specified period of time (0, 0.5, 1, 2, 4, 8, 24, and 48 hours) at 37° C. under continuous shaking. At the end of each time point, the sample was mixed with proteinase K (200 μg/mL) and frozen at −80° C. to stop the enzymatic reaction. For the analysis, samples were thawed and mixed with 1.0 wt. % SDS in order to release siRNA from the nanoparticles. The sample was then mixed with an equal amount of 2× loading buffer and loaded into a 15% TBE-urea gel (BioRad). The gel ran at 100 V for the first 20 minutes and 150 V for another hour. The gel was then stained with SyBR Gold (Life Technologies) following the manufacturer's protocol and viewed in a UV chamber. The band intensity was analyzed by ImageJ software (National Institutes of Health, Bethesda, Md.). The fraction of intact siRNA was reported as a function of time that the siRNA-nanoparticles were in 50% serum.

HER2+ cell lines = assay: Growth inhibition by siHER2 in a panel of HER2+ cell lines; assay type: cell-based; conditions: 19 out of 20 HER2+ cell lines; read-out: dose of the siHER2 required to inhibit cell growth by 50% (G150)
[6] = HCC70 (triple negative, basal), DharmaFECT, paclitaxel −
[7] = HCC70, then 5 nM paclitaxel 24 hours later (paclitaxel +)
[8] = SKBR3 (HER2 positive, luminal), DharmaFECT, paclitaxel −
[9] = SKBR3, then 5 nM paclitaxel 24 hours later (paclitaxel +)
[10] = BT549 (triple negative, basal), DharmaFECT, paclitaxel −
[11] = BT549, then 5 nM paclitaxel 24 hours later (paclitaxel +)
[12] = HCC1954 (HER2 positive, basal), DharmaFECT, paclitaxel −
[13] = HCC1954, then 5 nM paclitaxel 24 hours later (paclitaxel +)
[14] = BT474 (HER2 positive, luminal), DharmaFECT, paclitaxel −
[15] = BT474, then 5 nM paclitaxel 24 hours later (paclitaxel +)

N.N.[Cl][Pt][Cl] [cisplatin]
resistance of HCC1954 (HCC1954 [1]): resistant

[SH-].[SH-].[S]=[Mo]=[S] [tetrathiomolybdate]
treated patients with mild copper deficiency who achieved stable disease [2]: five out of six

GALA
effect of co-loaded peptide on silencing efficacy (luciferase): clearly enhanced silencing efficacy of the nanoconstructs

Triton-X
hemolysis of red blood cells (Red blood cells): complete blood lysis

collagen related peptide
platelet aggregation (Platelet-rich plasma): triggered aggregation immediately

pertuzumab
resistance of HCC1954 (HCC1954 [1]): resistant

siAKT1/BCL2: dual-targeting siRNA duplex, one strand targets AKT1, the other BCL2, SEQ ID NO. 7 and 8 (chain 1 AUUCAGUUUCACAUUGCUUGGUGAC; chain 2 GUCACCAAGAACUGUGACACAGAAGGG; listed as RNA, chemistry not given here)
best enhancement of paclitaxel effect [3]: 38-41%
Cell Viability (% of Scramble Control) (HCC70; [6]): 42%
Cell Viability (% of Scramble Control) (HCC70; [7]): 29%
Enhanced Paclitaxel effect due to gene knockdown (HCC70; HCC70): 41%
Cell Viability (% of Scramble Control) (SKBR3; [8]): 77%
Cell Viability (% of Scramble Control) (SKBR3; [9]): 29%
Enhanced Paclitaxel effect due to gene knockdown (SKBR3; SKBR3): 10%
Cell Viability (% of Scramble Control) (BT549; [10]): 54%
Cell Viability (% of Scramble Control) (BT549; [11]): 23%
Enhanced Paclitaxel effect due to gene knockdown (BT549; BT549): 36%
Cell Viability (% of Scramble Control) (HCC1954 [4]; [12]): 47%
Cell Viability (% of Scramble Control) (HCC1954 [4]; [13]): 17%
Enhanced Paclitaxel effect due to gene knockdown (HCC1954 [4]; HCC1954): 38%
Cell Viability (% of Scramble Control) (BT474; [14]): 74%
Cell Viability (% of Scramble Control) (BT474; [15]): 39%
Enhanced Paclitaxel effect due to gene knockdown (BT474; BT474): 19%

siHER2: siRNA against HER2, SEQ ID NO. 1 and 2 (chain 1 CACGUUUGAGUCCAUGCCCAAUU; chain 2 UUGGGCAUGGACUCAAACGUGUU; listed as RNA, chemistry not given here)
half-life [5]: about 1 hour
time within which siHER2 was degraded ([5]; without nanoparticles): ≤ 0.5 h
IC50 (HER2+ cell lines): < 5 nM
Cell Viability (% of Scramble Control) (HCC70; [6]): 76%
Cell Viability (% of Scramble Control) (HCC70; [7]): 49%
Enhanced Paclitaxel effect due to gene knockdown (HCC70; HCC70): 21%
Cell Viability (% of Scramble Control) (SKBR3; [8]): 51%
Cell Viability (% of Scramble Control) (SKBR3; [9]): 33%
Enhanced Paclitaxel effect due to gene knockdown (SKBR3; SKBR3): 6%
Cell Viability (% of Scramble Control) (BT549; [10]): 51%
Cell Viability (% of Scramble Control) (BT549; [11]): 40%
Enhanced Paclitaxel effect due to gene knockdown (BT549; BT549): 19%
Cell Viability (% of Scramble Control) (HCC1954 [4]; [12]): 68%
Cell Viability (% of Scramble Control) (HCC1954 [4]; [13]): 49%
Enhanced Paclitaxel effect due to gene knockdown (HCC1954 [4]; HCC1954): 6%
Cell Viability (% of Scramble Control) (BT474; [14]): 35%
Cell Viability (% of Scramble Control) (BT474; [15]): 26%
Enhanced Paclitaxel effect due to gene knockdown (BT474; BT474): 32%

siSCR: non-targeting or scrambled siRNA control, SEQ ID NO. 5 and 6 (chain 1 UGGUUUACAUGUCGACUAA; chain 2 UUAGUCGACAUGUAAACCA; listed as RNA, chemistry not given here) [reference compound]
Cell Viability (% of Scramble Control) (HCC70; [7]): 70%
Cell Viability (% of Scramble Control) (SKBR3; [9]): 39%
Cell Viability (% of Scramble Control) (BT549; [11]): 59%
Cell Viability (% of Scramble Control) (HCC1954 [4]; [13]): 55%
Cell Viability (% of Scramble Control) (BT474; [15]): 58%
